Experimental data reported in patent publication US20240109881A1, “Heteroaryl Compounds as Ligand Directed Degraders of IRAK4” (Bristol-Myers Squibb Company, priority 2022, published 2024).
Structures can show the parent of a compound that is named as a salt. Where two headings read alike, the source gives them in different places.

Key:
[1] = biological target: T1, IRAK4 (Homo sapiens, UniProt Q9NWZ3); test: LVL THP1 HTRF (THP1 Homogeneous Time Resolved Fluorescence); assay type: cell-based; conditions: THP1 cells, 18 h incubation with compound; for DC50: read-out: LVL THP1 HTRF EC50
T1 construct: endogenous in cells; host or cells: THP-1 cells
T1 sequence (Q9NWZ3 1-460): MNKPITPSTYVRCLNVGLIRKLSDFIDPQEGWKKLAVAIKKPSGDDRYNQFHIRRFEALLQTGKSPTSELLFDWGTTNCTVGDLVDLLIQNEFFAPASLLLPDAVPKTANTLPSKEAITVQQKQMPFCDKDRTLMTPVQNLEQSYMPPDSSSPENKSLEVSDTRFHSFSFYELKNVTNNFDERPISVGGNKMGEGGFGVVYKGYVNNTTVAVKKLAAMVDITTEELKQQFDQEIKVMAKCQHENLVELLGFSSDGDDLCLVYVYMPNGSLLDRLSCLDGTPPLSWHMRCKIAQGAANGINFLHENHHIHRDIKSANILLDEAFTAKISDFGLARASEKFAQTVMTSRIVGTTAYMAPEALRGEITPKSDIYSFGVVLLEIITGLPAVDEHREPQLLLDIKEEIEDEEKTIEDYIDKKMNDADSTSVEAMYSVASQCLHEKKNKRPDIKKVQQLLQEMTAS
Procedure, shortened: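 THP-1 cells in phenol red-free RPMI with 10% FBS were dosed with compound (20 nL in DMSO) for 18 h at 37° C. After 2 h lysis, IRAK4 was detected with anti-IRAK4-d2/anti-IRAK4-K HTRF antibodies for 18 h at room temperature and read at 665/615 nm; a parallel CTG plate was run.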

[2] = biological target: T1, IRAK4; test: ALE THP1 HTRF (Advanced Lipoxidation End Product THP1 Homogeneous Time Resolved Fluorescence); assay type: cell-based; conditions: THP1 cells
Procedure, shortened: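 Cells lysed 45 min at room temperature; lysates normalized to total protein by BCA. Total IRAK4 detected by HTRF sandwich (anti-IRAK4-d2 plus anti-IRAK4-cryptate), incubated overnight in the dark at room temperature, read on a time-resolved fluorescence plate reader.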

[3] = Pharmacokinetic studies in mice (plasma PK, IV and PO); assay type: in vivo; conditions: female C57B16 mice; for FPO: PO 3.0 mg/kg vs IV 0.50 mg/kg, dose-normalized AUCLAST; for clearance: read-out: Clp; for Vd: read-out: VSS
Description: Due to the higher molecular weight and lipophilicity, targeted protein degraders generally occupy a physiochemical property space that is beyond Lipinski's rule of 5 and as consequence are expected to have poor oral bioavailability and overall pharmacokinetic properties. […] The plasma pharmacokinetics (PK) of P-394, P-155, P-139, and P-160 were characterized in female C57B16 mice following intravenous (IV; 0.5 mg/kg) administration. Plasma from the tail vein was withdrawn in composite fashion: one group of mice (n=3) provided samples at 2 min, 30 min, 2 h, and 8 h, while another group (n=3) provided samples at 15 min, 1 h, 4 h, and 24 h. The concentrations of test article in these samples were measured using reverse-phase LC-MS-MS and then plotted as a function of time. The resulting concentration-time data was processed using noncompartmental analysis for the calculation of clearance (Cl), volume of distribution at steady state (Vss), half-life, mean residence time (MRT) and area under the time curve (AUC).
Similarly, the PK was characterized following oral (PO; 3 mg/kg) administration. Again, plasma from the tail vein was withdrawn in composite fashion: one group of mice (n=3) provided samples at 15 min, 1 h, 4 h, and 8 h, while another group (n=3) provided samples at […], 2 h, and 24 h. Oral bioavailability (FPO) was calculated by comparing the results of the studies described, dividing the dose-normalized AUCLAST,PO by the dose-normalized AUCLAST,IV.

[4] = mouse, 0.5 mg/kg, IV 0.50 mg/kg, plasma
[5] = mouse, 0.5 mg/kg, plasma, IV 0.50 mg/kg

## C[C@H](C#N)Nc1cc(-n2ncc3cc(C#N)cnc32)ncc1-n1cc([C@H]2CC[C@H](CCN3CCN(c4ccc(C5CCC(=O)NC5=O)cc4)CC3)CC2)nn1 (stereo partly drawn) [P-139, 1-(4-(((R)-1-cyanoethyl)amino)-5-(4-((1r,4R)-4-(2-(4-(4-(2,6-dioxopiperidin-3-yl)phenyl)piperazin-1-yl)ethyl)cyclohexyl)-1H-1,2,3-triazol-1-yl)pyridin-2-yl)-1H-pyrazolo[3,4-b]pyridine-5-carbonitrile, formic acid salt]
[1]
  LVL THP1 HTRF YMIN: 1.7%
  DC50: 11 nM
[2]
  ALE THP1 HTRF YMIN: 5.6%
  EC50: 1 nM
[3]
  FPO: 39%
[3]; [4]
  AUC(0-t): 1.06 µM·h
  MRT: 4.59 h
  half-life: 2.98 h
  clearance: 10.6 mL/min/kg
  Vd: 2.91 L/kg
[3]; mouse, PO 3.0 mg/kg, plasma
  AUC(0-t): 2.47 µM·h
  Cmax: 380 nM
  Tmax: 2 h

## C[C@H](C#N)Nc1cc(-n2ncc3cc(C#N)cnc32)ncc1-n1cc(C2CCC(CCN3CCN(c4ccc(C5CCC(=O)NC5=O)cc4)[C@H](C)C3)CC2)nn1 (stereo partly drawn) [P-155]
[1]
  LVL THP1 HTRF YMIN: 0.9%
  DC50: 6 nM
[2]
  ALE THP1 HTRF YMIN: 10.2%
  EC50: 2 nM
[3]
  FPO: ~100%
[3]; [4]
  AUC(0-t): 2.01 µM·h
  MRT: 3.3 h
  half-life: 4.1 h
  clearance: 5.45 mL/min/kg
  Vd: 1.08 L/kg
[3]; mouse, PO 3.0 mg/kg, plasma
  AUC(0-t): 13.7 µM·h
  Cmax: 3010 nM
  Tmax: 2 h

## C[C@H](C#N)Nc1cc(-n2ncc3cc(C#N)c(N)nc32)ncc1-n1cc([C@H]2CC[C@H](CCN3CCN(c4ccc(C5CCC(=O)NC5=O)cc4)CC3)CC2)nn1 (stereo partly drawn) [P-160, 6-amino-1-(4-(((R)-1-cyanoethyl)amino)-5-(4-((1r,4R)-4-(2-(4-(4-(2,6-dioxopiperidin-3-yl)phenyl)piperazin-1-yl)ethyl)cyclohexyl)-1H-1,2,3-triazol-1-yl)pyridin-2-yl)-1H-pyrazolo[3,4-b]pyridine-5-carbonitrile, TFA]
[1]
  LVL THP1 HTRF YMIN: 0.7%
  DC50: 4 nM
[2]
  ALE THP1 HTRF YMIN: 5.8%
  EC50: 4 nM
[3]
  FPO: 31.6%
[3]; [4]
  AUC(0-t): 0.739 µM·h
  MRT: 3.8 h
  half-life: 3.2 h
  clearance: 14.9 mL/min/kg
  Vd: 3.37 L/kg
[3]; mouse, PO 3.0 mg/kg, plasma
  AUC(0-t): 1.4 µM·h
  Cmax: 245 nM
  Tmax: 2 h

## C[C@H](C#N)Nc1cc(-n2ncc3cc(C#N)c(N)nc32)ncc1C(=O)N[C@H]1CC[C@H](CCN2CCN(c3ccc(C4CCC(=O)NC4=O)cc3)C(C(F)(F)F)C2)CC1 (stereo partly drawn) [P-186]
[1]
  LVL THP1 HTRF YMIN: 5.7%
  DC50: 29 nM
[2]
  ALE THP1 HTRF YMIN: 13.9%
  EC50: 34 nM

## CC[C@@H]1CN(CC[C@H]2CC[C@H](c3cn(-c4cnc(-n5ncc6cc(C#N)cnc65)cc4N[C@H](C)C#N)nn3)CC2)CCN1c1ccc(N2CCC(=O)NC2=O)cn1 [P-394, 1-(4-(((R)-1-cyanoethyl)amino)-5-(4-((1R,4R)-4-(2-((R)-4-(5-(2,4-dioxotetrahydropyrimidin-1(2H)-yl)pyridin-2-yl)-3-ethylpiperazin-1-yl)ethyl)cyclohexyl)-1H-1,2,3-triazol-1-yl)pyridin-2-yl)-1H-pyrazolo[3,4-b]pyridine-5-carbonitrile]
[1]
  LVL THP1 HTRF YMIN: 1.4%
  DC50: 6 nM
[3]; [5]
  AUC(0-t): 0.884 µM·h
  MRT: 2.2 h
  half-life: 1.7 h
  clearance: 11.8 mL/min/kg
  Vd: 1.58 L/kg
[3]; mouse, plasma, PO 3.00 mg/kg vs IV 0.50 mg/kg, dose-normalized AUCLAST ratio, read-out: FPO (oral bioavailability)
  bioavailability: 26.6%
[3]; mouse, plasma, PO 3.00 mg/kg
  AUC(0-t): 1.41 µM·h
  Cmax: 559 nM
  Tmax: 0.25 h
